The values below come from publication PMC6278284, “Synthesis of Jacaranone-Derived Nitrogenous Cyclohexadienones and Their Antiproliferative and Antiprotozoal Activities” (Molecules, 2018).

Read-outs that look alike come from different tables or passages of the source. Where only a bound is given, the exact number is not on record here.

Data set [1] relates to P. falciparum, strain NF54, erythrocytic stages. The experiment in a line: In vitro growth inhibition assay of Plasmodium falciparum NF54 ([3H]-hypoxanthine incorporation). Type of data set: cell-based. Particulars: for IC50: Plasmodium falciparum, strain NF54, erythrocytic stages, read-out: P. falc. IC50; for SI (IC50 in L6 cells/IC50 P. falciparum): ratio IC50 L6 / IC50 P. falciparum NF54. How it is done:
In vitro activity against erythrocytic stages of P. falciparum was determined by a modified [^3H]-hypoxanthine incorporation assay using the drug-sensitive NF54 strain and the standard drug, chloroquine (Sigma C6628). Briefly, parasite cultures incubated in RPMI 1640 medium with 5% AlbuMAX^TM (without hypoxanthine) were exposed to serial drug dilutions in microtiter plates. After 48 h of incubation at 37 °C in a reduced oxygen atmosphere, 0.5 μCi [^3H]-hypoxanthine was added to each well of the plate. Cultures were incubated for a further 24 h before they were harvested onto glass-fiber filters and washed with distilled water. The radioactivity was counted using a Betaplate^TM liquid scintillation counter (Wallac, Zurich). The results were recorded as counts per minute (CPM) per well at each drug concentration and expressed as a percentage of the untreated controls. IC50 values were calculated from the sigmoidal inhibition curves using Microsoft Excel.

Data set [2] concerns T. brucei rhodesiense, strain STIB900 trypomastigote forms. In words: In vitro growth inhibition assay of Trypanosoma brucei rhodesiense (Alamar Blue). Format: cell-based. Particulars: for IC50: 72 h, strain STIB900, trypomastigote forms, read-out: T.b.rhod. IC50; for SI (IC50 in L6 cells/IC50 T. b. rhodesiense): ratio IC50 L6 / IC50 T. b. rhodesiense STIB900. The method, then:
Trypanosoma brucei rhodesiense, STIB 900 strain, and the standard drug, melarsoprol, were used for the assay. Minimum Essential Medium (50 μL) supplemented with 25 mM HEPES, 1g/L additional glucose, 1% MEM non-essential amino acids (100×), 0.2 mM 2-mercaptoethanol, 1 mM Na-pyruvate, and 15% heat-inactivated horse serum was added to each well of a 96-well microtiter plate. Serial drug dilutions of 11 three-fold dilution steps covering a range from 100 to 0.002 μg/mL were prepared. Then, 4 × 10^3 bloodstream forms of T. b. rhodesiense (STIB 900) in 50 μL were added to each well and the plate was incubated at 37 °C under a 5% CO2 atmosphere for 72 h. 10 μL Alamar Blue (resazurin, 12.5 mg in 100 mL double-distilled water) was then added to each well and incubation continued for a further 2–4 h. Then, the plates were read with a Spectramax Gemini XS microplate fluorometer (Molecular Devices Cooperation, Sunnyvale, CA, USA) using an excitation wavelength of 536 nm and an emission wavelength of 588 nm. The IC50 values were calculated from the sigmoidal inhibition curves using the microplate reader software, Softmax Pro (Molecular Devices Cooperation, Sunnyvale, CA, USA). Melarsoprol was used as the control.
A general note: The colour change of resazurin is a common sign of viable cells or microbes.

Data set [3] concerns HCT-116 colon cancer cells. The experiment in a line: XTT viability assay, HCT-116. Type of data set: cell-based. Particulars: Homo sapiens, 72 h, read-out: metabolic active cells in % of control; for viability at 5 µg/mL: HCT 116, 5 µg/mL; for viability at 50 µg/mL: HCT 116, 50 µg/mL. How it is done: (§1) Human CCRF-CEM leukemia and MDA-MB-231 breast cancer cells lines were kept in RPMI1640 medium (Gibco®, ThermoFisher Scientific Inc., New York, NY, USA), supplemented with 2 mM L-glutamine (Gibco®), 10% heat-inactivated foetal bovine serum (FBS, Gibco®), 100 units/mL Penicillin (PAA), and 100 µg/mL Streptomycin (Gibco®) (1% Pen/Strep). HCT-116 and U251 cells were cultured in high-glucose Dulbecco’s Modified Eagle Medium (DMEM, Gibco®) containing 2 mM L-glutamine, 10% FBS, and 1% Pen/Strep. MRC-5 cells were grown in Minimum Essential Medium (MEM, Gibco®) supplemented with 2 mM L-glutamine, 10% FBS, and 1% Pen/Strep. All cells were kept in a humidified 5% CO2 atmosphere at 37 °C and passaged at 90% confluence.
(§2) A Cell Proliferation Kit II (XTT) was purchased from Sigma-Aldrich and performed as described previously and in accordance with the manufacturer’s protocol. In brief, adherent cell lines were seeded at a density of 50,000 cells/mL or 100,000 cells/mL (MRC-5) in 96 well plates (100 µL, flat bottom) and grown for 24 h before test compounds were added. Suspension cells (CCRF-CEM) were seeded at 100,000 cells/mL and test compounds were added immediately. After 72 h, XTT solution was added for another 90 min or 4 h (CCRF-CEM cells) and absorbance was measured at 490 nm with a reference wave length of 650 nm (Hidex Sense Microplate Reader 425-301, Hidex, Turku, Finland). Results are expressed as a percentage of the vehicle-treated (0.5% DMSO) control cells. Vinblastine served as the positive control (0.01 µg/mL).

Data set [4] relates to MRC-5 non-tumorigenic lung fibroblasts. The experiment in a line: XTT viability assay, MRC-5. Format: cell-based, human. Particulars: 72 h; for viability at 5 µg/mL / viability at 50 µg/mL: Homo sapiens, MRC5, read-out: metabolic active cells in % of control; for viability at 5 µg/mL: MRC-5, 5 µg/mL; for viability at 50 µg/mL: MRC-5, 50 µg/mL; for cytotoxicity against human MRC-5 cells (in words): 5 µg/mL. The method, then:
as §1, §2
(Tetrazolium assays rely on reduction of a dye to a coloured formazan, in cell work by metabolically active cells.)

In data set [5] the test system is human (cancer) cell lines (CCRF-CEM, MDA-MB-231, HCT-116, U251, MRC-5). The experiment in a line: XTT viability assay, statements on the whole panel of cell lines. Format: cell-based. Conditions: 72 h; for metabolic activity, % of the control: in all (13i) or almost all (13b) cell lines; for overall cytotoxicity (in words): 50 µg/mL, panel of cell lines. How it is done:
All synthesized dienones (13a–j, 14a, 14c, and 15) were evaluated for their cytotoxic activity against human (cancer) cell lines. To cover a range of different tumor entities, we used a panel of cancer cell lines (CCRF-CEM leukemia, MDA-MB-231 breast cancer, HCT-116 colon cancer, and U251 glioblastoma cells) as well as a non-tumorigenic human cell line (MRC-5 lung fibroblasts). All derivatives were screened for their cytotoxicity at 5 µg/mL and 50 µg/mL to cover a broad concentration range. Cells were exposed to the derivatives for 72 h. […] No clear correlation between cytotoxic and antiprotozoal effects could be drawn. […] Human CCRF-CEM leukemia and MDA-MB-231 breast cancer cells lines were kept in RPMI1640 medium (Gibco®, ThermoFisher Scientific Inc., New York, NY, USA), supplemented with 2 mM L-glutamine (Gibco®), 10% heat-inactivated foetal bovine serum (FBS, Gibco®), 100 units/mL Penicillin (PAA), and 100 µg/mL Streptomycin (Gibco®) (1% Pen/Strep). HCT-116 and U251 cells were cultured in high-glucose Dulbecco’s Modified Eagle Medium (DMEM, Gibco®) containing 2 mM L-glutamine, 10% FBS, and 1% Pen/Strep. MRC-5 cells were grown in Minimum Essential Medium (MEM, Gibco®) supplemented with 2 mM L-glutamine, 10% FBS, and 1% Pen/Strep. All cells were kept in a humidified 5% CO2 atmosphere at 37 °C and passaged at 90% confluence. A Cell Proliferation Kit II (XTT) was purchased from Sigma-Aldrich and performed as described previously and in accordance with the manufacturer’s protocol. In brief, adherent cell lines were seeded at a density of 50,000 cells/mL or 100,000 cells/mL (MRC-5) in 96 well plates (100 µL, flat bottom) and grown for 24 h before test compounds were added. Suspension cells (CCRF-CEM) were seeded at 100,000 cells/mL and test compounds were added immediately. After 72 h, XTT solution was added for another 90 min or 4 h (CCRF-CEM cells) and absorbance was measured at 490 nm with a reference wave length of 650 nm (Hidex Sense Microplate Reader 425-301, Hidex, Turku, Finland). Results are expressed as a percentage of the vehicle-treated (0.5% DMSO) control cells. Vinblastine served as the positive control (0.01 µg/mL).

Broadly, the IC50 is the midpoint of a concentration-inhibition curve. For the compound `O=C1C=CC(O)(CCN2C(=O)C=CC2=O)C=C1` [Compound 13b, N-[2-(1-Hydroxy-4-oxocyclohexa-2,5-dien-1-yl)ethyl]maleimide], the results for the IC50 in data set [1] and in data set [2] (Trypanosoma brucei) were 4420 nM and 2150 nM, respectively. Moreover, the “SI (IC50 in L6 cells/IC50 P. falciparum)” value in data set [1] is recorded as 6.1. Besides, the “SI (IC50 in L6 cells/IC50 T. b. rhodesiense)” value in data set [2] is listed as 12.5. For the same compound, the viability at 5 µg/mL turned out to be 0.13% in data set [3] and 14.6% in data set [4]. The viability at 50 µg/mL was -0.32% in data set [3] and 0.62% in data set [4]. Further, the “metabolic activity, % of the control” value in data set [5] (5 µg/mL) is reported as “below 40 % of the control”.
In the case of `O=C1C=CC(O)(CCN2C(=O)c3cccnc3C2=O)C=C1` [Compound 13f, N-[2-(1-Hydroxy-4-oxocyclohexa-2,5-dien-1-yl)ethyl]pyridine-2,3-dicarboximide], in data set [1], the IC50 turned out to be 28000 nM and the “SI (IC50 in L6 cells/IC50 P. falciparum)” value is reported as 5.5. In addition, the “SI (IC50 in L6 cells/IC50 T. b. rhodesiense)” value in data set [2] is reported as 3.4. Moreover, in data set [3], the viability at 5 µg/mL worked out at 91% and the viability at 50 µg/mL worked out at 92.8%. Moreover, in data set [4], the “cytotoxicity against human MRC-5 cells (in words)” value is “did not show any cytotoxicity”, the viability at 5 µg/mL stood at 109% and the viability at 50 µg/mL was found to be 112%. The “overall cytotoxicity (in words)” value in data set [5] is on record as “negligible”.
Regarding `O=C1C=CC(O)(CCN2C(=O)COCC2=O)C=C1` [Compound 13g, N-[2-(1-Hydroxy-4-oxocyclohexa-2,5-dien-1-yl)ethyl]morpholine-3,5-dione], in data set [1], the 50% inhibitory concentration (IC50) turned out to be 11800 nM and the “SI (IC50 in L6 cells/IC50 P. falciparum)” value is on record as 6.6. The IC50 in data set [2] (Trypanosoma brucei) was greater than 10000 nM. In data set [2], the “SI (IC50 in L6 cells/IC50 T. b. rhodesiense)” value is 5.1 and the IC50 worked out at 15300 nM. Also, in data set [3], the viability at 5 µg/mL was 96% and the viability at 50 µg/mL worked out at 68.1%. Also, in data set [4], the “cytotoxicity against human MRC-5 cells (in words)” value was “did not show any cytotoxicity”, the viability at 5 µg/mL came out at 116% and the viability at 50 µg/mL amounted to 89.6%. Further, the “overall cytotoxicity (in words)” value in data set [5] was “negligible”.
Take `O=C1C=CC(O)(CCN2C(=O)C3=C(CCCC3)C2=O)C=C1` [Compound 13i, N-[2-(1-Hydroxy-4-oxocyclohexa-2,5-dien-1-yl)ethyl]-3,4,5,6-tetrahydrophthalimide]: the IC50 in data set [1] was determined as 1280 nM; in data set [2] (Trypanosoma brucei), 800 nM. The values for the viability at 5 µg/mL in data set [3] and in data set [4] were 1.04% and 5.69%, respectively. The viability at 50 µg/mL in data set [3] amounted to 0.15%; in data set [4], 0.51%. The “metabolic activity, % of the control” value in data set [5] (5 µg/mL) is reported as “below 40 % of the control”.
On to `O=C1C=CC(O)(CCN2C(=O)C3CC=CCC3C2=O)C=C1` (centres unmarked) [Compound 13j, N-[2-(1-Hydroxy-4-oxocyclohexa-2,5-dien-1-yl)ethyl]-1,2,3,6-tetrahydrophthalimide], for which, in data set [1], the IC50 worked out at 3930 nM and the “SI (IC50 in L6 cells/IC50 P. falciparum)” value came to 2.0. In addition, in data set [2] (Trypanosoma brucei), the IC50 came out at 970 nM. In addition, the “SI (IC50 in L6 cells/IC50 T. b. rhodesiense)” value in data set [2] is on record as 8.3. In data set [3], the viability at 5 µg/mL is 98.6% and the viability at 50 µg/mL was found to be 63.3%. Besides, in data set [4], the “cytotoxicity against human MRC-5 cells (in words)” value is given as “did not show any cytotoxicity”, the viability at 5 µg/mL was determined as 96.1% and the viability at 50 µg/mL came to 50.3%. Also, the “overall cytotoxicity (in words)” value in data set [5] was “negligible”.
In the case of `O=C1C=CC(O)(CCN2Cc3ccccc3C2)C=C1` [Compound 14a, N-[2-(1-Hydroxy-4-oxocyclohexa-2,5-dien-1-yl)ethyl]isoindoline], in data set [1], the IC50 was 2910 nM and the “SI (IC50 in L6 cells/IC50 P. falciparum)” value is given as 1.0. In addition, the IC50 in data set [2] (Trypanosoma brucei) is 570 nM. The “SI (IC50 in L6 cells/IC50 T. b. rhodesiense)” value in data set [2] amounted to 4.9. Besides, in data set [3], the viability at 5 µg/mL came out at 97.3% and the viability at 50 µg/mL was 62.1%. For the same compound, in data set [4], the “cytotoxicity against human MRC-5 cells (in words)” value is recorded as “did not show any cytotoxicity”, the viability at 5 µg/mL is 119% and the viability at 50 µg/mL was 95.1%. For the same compound, in data set [5], the “overall cytotoxicity (in words)” value was “negligible”.
Turning to `O=C1C=CC(O)(CCN2CCOCC2)C=C1` [Compound 14c, N-[2-(1-Hydroxy-4-oxocyclohexa-2,5-dien-1-yl)ethyl]morpholine], the IC50 came out at 10900 nM in data set [1] and 270 nM in data set [2] (Trypanosoma brucei). Besides, the “SI (IC50 in L6 cells/IC50 P. falciparum)” value in data set [1] amounted to 0.3. In data set [2], the “SI (IC50 in L6 cells/IC50 T. b. rhodesiense)” value is 12.9. In addition, the values for the viability at 5 µg/mL in data set [3] and in data set [4] were 87.7% and 141%, respectively. Further, the results for the viability at 50 µg/mL in data set [3] and in data set [4] were 1.58% and 0.79%, respectively. Further, the “cytotoxicity against most cell lines (in words)” value in data set [5] (5 µg/mL) is “only minor cytotoxicity”.
